Experimental data from patent US9796711B2, “Substituted pyrazolo[3,4-b]pyridin-6-carboxylic acids and method of use” (AbbVie S.àr.l., priority 2015, dated 2017).

Tests used:
[1] = target: T1, ΔF508-CFTR (Homo sapiens, UniProt P13569, DEL508-508); assay: CFTR cell surface levels using HRP-tagged ΔF508-CFTR expressing CFBE cells, in the presence of a co-corrector; type: cell-based; details: HRP-tagged ΔF508-CFTR expressing CFBE cells, in the presence of 3 μM co-corrector; for EC50: read-out: EC50
T1 construct: host or cells: CFBE41o-, doxycycline-inducible
T1 sequence (P13569 with tags, fused parts or gaps DEL508-508): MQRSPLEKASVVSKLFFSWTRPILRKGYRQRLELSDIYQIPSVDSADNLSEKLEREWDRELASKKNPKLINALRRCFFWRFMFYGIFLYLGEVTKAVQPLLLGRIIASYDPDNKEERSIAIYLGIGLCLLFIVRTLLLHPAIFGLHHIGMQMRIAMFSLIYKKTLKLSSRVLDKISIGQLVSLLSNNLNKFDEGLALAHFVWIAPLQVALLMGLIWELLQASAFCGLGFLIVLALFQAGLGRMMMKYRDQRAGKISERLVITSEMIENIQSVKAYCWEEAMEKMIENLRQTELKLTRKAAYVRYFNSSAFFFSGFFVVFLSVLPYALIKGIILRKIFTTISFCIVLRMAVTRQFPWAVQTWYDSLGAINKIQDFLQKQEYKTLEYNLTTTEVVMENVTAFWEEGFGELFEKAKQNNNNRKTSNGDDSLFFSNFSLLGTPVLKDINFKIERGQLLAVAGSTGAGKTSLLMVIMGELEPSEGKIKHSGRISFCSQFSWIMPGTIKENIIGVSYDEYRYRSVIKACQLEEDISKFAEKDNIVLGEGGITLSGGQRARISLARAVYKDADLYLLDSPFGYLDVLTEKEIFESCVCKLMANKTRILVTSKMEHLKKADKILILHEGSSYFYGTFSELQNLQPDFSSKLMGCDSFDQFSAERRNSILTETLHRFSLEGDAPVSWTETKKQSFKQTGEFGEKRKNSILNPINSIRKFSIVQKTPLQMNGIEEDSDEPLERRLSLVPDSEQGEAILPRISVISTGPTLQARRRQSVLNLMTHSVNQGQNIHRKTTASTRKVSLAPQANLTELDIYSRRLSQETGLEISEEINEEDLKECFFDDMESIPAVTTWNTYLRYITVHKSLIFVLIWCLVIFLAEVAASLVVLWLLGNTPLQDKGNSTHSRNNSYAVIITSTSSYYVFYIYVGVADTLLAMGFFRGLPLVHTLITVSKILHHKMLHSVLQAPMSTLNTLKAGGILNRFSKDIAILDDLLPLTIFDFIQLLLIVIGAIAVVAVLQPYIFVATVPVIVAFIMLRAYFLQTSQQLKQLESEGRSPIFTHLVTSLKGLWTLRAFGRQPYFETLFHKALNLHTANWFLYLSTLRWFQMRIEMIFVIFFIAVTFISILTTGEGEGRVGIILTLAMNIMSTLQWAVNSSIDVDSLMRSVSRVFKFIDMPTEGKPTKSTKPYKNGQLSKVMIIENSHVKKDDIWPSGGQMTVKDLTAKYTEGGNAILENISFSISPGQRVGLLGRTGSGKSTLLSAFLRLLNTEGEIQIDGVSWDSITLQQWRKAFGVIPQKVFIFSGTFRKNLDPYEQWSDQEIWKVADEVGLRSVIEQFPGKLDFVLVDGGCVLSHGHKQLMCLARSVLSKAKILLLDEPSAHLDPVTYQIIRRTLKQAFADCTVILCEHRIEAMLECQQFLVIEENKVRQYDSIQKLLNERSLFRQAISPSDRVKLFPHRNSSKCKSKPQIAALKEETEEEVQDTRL
Procedure, shortened: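 Cells were seeded with 0.5 μg/mL doxycycline and held 68 h at 37 °C. Test compounds plus 3 μM co-corrector (final 0.1% DMSO) were then added for 20 h at 33 °C. Washed cells received HRP substrate, and luminescence was normalized between DMSO and 3 μM co-corrector controls.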

[2] = target: T1, ΔF508-CFTR; assay: CFTR cell surface levels using HRP-tagged ΔF508-CFTR expressing CFBE cells, intrinsic corrector capacity; type: cell-based; details: HRP-tagged ΔF508-CFTR expressing CFBE cells, intrinsic corrector capacity (no co-corrector), 33° C., 20 hours; for EC50: read-out: EC50
Procedure, shortened: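 Here the cells express ΔF508-CFTR with horseradish peroxidase inserted in extracellular loop 4, so only rescued channel at the surface gives luminescent signal. Compounds act on their own, 20 h at the reduced temperature of 33 °C; values are percent activity relative to DMSO and a 3 μM corrector.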

Structure (SMILES) | % Activation [1] [%] | EC50 [1] [nM] | % Activation [2] [%] | EC50 [2] [nM]
O=C(O)c1cc(N2CCC3(C2)CC3(F)F)c2c(C3CCC3)nn(-c3ccccc3)c2n1 (centres unmarked) [compound 423, 3-cyclobutyl-4-(1,1-difluoro-5-azaspiro [2. 4]heptan-5-yl)-1-phenyl-1H-pyrazolo[3,4-b]pyridine-6-carboxylic acid] | 299.25 | 920 | 113.4 | 934
O=C(O)c1cc(N2CC3(CCCCO3)C2)c2c(C3CCC3)nn(-c3ccccc3)c2n1 [compound 424, 3-cyclobutyl-4-(5-oxa-2-azaspiro[3.5]nonan-2-yl)-1-phenyl-1H-pyrazolo[3,4-b]pyridine-6-carboxylic acid] | 254.9 | 829 | 86.32 | 1080
O=C(O)c1cc(N2CC3(CCOCC3)C2)c2c(C3CCC3)nn(-c3ccccc3)c2n1 [compound 425, 3-cyclobutyl-4-(7-oxa-2-azaspiro[3.5]nonan-2-yl)-1-phenyl-1H-pyrazolo[3,4-b]pyridine-6-carboxylic acid] | 262.45 | 349 | 123.35 | 990
O=C(O)c1cc(N2CC3(CCC3)C2)c2c(C3CCC3)nn(-c3ccccc3)c2n1 [compound 426, 4-(2-azaspiro[3.3]heptan-2-yl)-3-cyclobutyl-1-phenyl-1H-pyrazolo[3,4-b]pyridine-6-carboxylic acid] | 253.5 | 897 | 76.06 | 998
O=C(O)c1cc(N2CCC(COCc3ccccc3)CC2)c2c(C3CCC3)nn(-c3ccccc3)c2n1 [compound 427, 4-{4-[(benzyloxy)methyl]piperidin-1-yl}-3-cyclobutyl-1-phenyl-1H-pyrazolo[3,4-b]pyridine-6-carboxylic acid] | 418.9 | 577 | 200.4 | 663
CO[C@H]1CC[C@@H](Oc2cc(C(=O)O)nc3c2c(C2CCC2)nn3-c2ccccc2)CC1 [compound 428, 3-cyclobutyl-4-[(cis-4-methoxycyclohexyl)oxy]-1-phenyl-1H-pyrazolo[3,4-b]pyridine-6-carboxylic acid] | 296 | 380 | 128.05 | 978
CO[C@H]1CC[C@H](Oc2cc(C(=O)O)nc3c2c(C2CCC2)nn3-c2ccccc2)CC1 [compound 429, 3-cyclobutyl-4-[(trans-4-methoxycyclohexyl)oxy]-1-phenyl-1H-pyrazolo[3,4-b]pyridine-6-carboxylic acid] | 268.2 | 370 | 114.95 | 979
CC1(C)CC(c2nn(-c3ccccc3)c3nc(C(=O)O)cc(-c4ccc(N5CCC(C#N)CC5)nc4)c23)C1 [compound 430, 4-[6-(4-cyanopiperidin-1-yl)pyridin-3-yl]-3-(3,3-dimethylcyclobutyl)-1-phenyl-1H-pyrazolo[3,4-b]pyridine-6-carboxylic acid] | 342.17 | 243 | 175.73 | 373
COCC1CCN(c2cc(C(=O)O)nc3c2c(C(C)C)nn3C2CCCCC2)CC1 [compound 431, 1-cyclohexyl-4-[4-(methoxymethyl)piperidin-1-yl]-3-(propan-2-yl)-1H-pyrazolo[3,4-b]pyridine-6-carboxylic acid] | 416.6 | 425 | 198.57 | 543
N#CC1CCN(c2ccc(-c3cc(C(=O)O)nc4c3c([C@H]3C[C@@H](F)C3)nn4-c3ccccc3)cn2)CC1 [compound 432, 4-[6-(4-cyanopiperidin-1-yl)pyridin-3-yl]-3-(cis-3-fluorocyclobutyl)-1-phenyl-1H-pyrazolo[3,4-b]pyridine-6-carboxylic acid] | 388.23 | 298 | 197.97 | 561
N#CC1CCN(c2ccc(-c3cc(C(=O)O)nc4c3c([C@H]3C[C@H](F)C3)nn4-c3ccccc3)cn2)CC1 [compound 433, 4-[6-(4-cyanopiperidin-1-yl)pyridin-3-yl]-3-(trans-3-fluorocyclobutyl)-1-phenyl-1H-pyrazolo[3,4-b]pyridine-6-carboxylic acid] | 369.1 | 367 | 185.45 | 629
O=C(O)c1cc(OC[C@H](F)C2CCOCC2)c2c(C3CCC3)nn(-c3ccccc3)c2n1 [compound 434, 3-cyclobutyl-4-[(2R)-2-fluoro-2-(oxan-4-yl)ethoxy]-1-phenyl-1H-pyrazolo[3,4-b]pyridine-6-carboxylic acid] | 342.8 | 328 | 154.17 | 581
O=C(O)c1cc(OCC2CCC(F)(F)C2)c2c(C3CCC3)nn(-c3ccccc3)c2n1 (centres unmarked) [compound 435, 3-cyclobutyl-4-[(3,3-difluorocyclopentyl)methoxy]-1-phenyl-1H-pyrazolo[3,4-b]pyridine-6-carboxylic acid] | 290.05 | 453 | 116.7 | 773
O=C(O)c1cc(OCCN2CCS(=O)(=O)CC2)c2c(C3CCC3)nn(-c3ccccc3)c2n1 [compound 436, 3-cyclobutyl-4-[2-(1,1-dioxo-lλ^6,4-thiazinan-4-yl)ethoxy]-1-phenyl-1H-pyrazolo[3,4-b]pyridine-6-carboxylic acid] | 157.15 | 2510 | 24.16 | 4170
CC(C)c1nn(-c2ccnc(N3CCOCC3)c2)c2nc(C(=O)O)cc(-c3ccc(N4CCC(C#N)CC4)nc3)c12 [compound 437, 4-[6-(4-cyanopiperidin-1-yl)pyridin-3-yl]-1-[2-(morpholin-4-yl)pyridin-4-yl]-3-(propan-2-yl)-1H-pyrazolo[3,4-b]pyridine-6-carboxylic acid] | 419.53 | 795 | 247.47 | 1230
COC(C)(C)C1CCN(c2cc(C(=O)O)nc3c2c(C(C)C)nn3-c2ccc(F)cc2)CC1 [compound 438, 1-(4-fluorophenyl)-4-[4-(2-methoxypropan-2-yl)piperidin-1-yl]-3-(propan-2-yl)-1H-pyrazolo[3,4-b]pyridine-6-carboxylic acid] | 507.27 | 387 | 277.03 | 331
CN(c1cc(C(=O)O)nc2c1c(C1CCC1)nn2-c1ccccc1)[C@H]1C[C@@H](OC(C)(C)C)C1 [compound 439, 4-[(cis-3-tert-butoxycyclobutyl)(methyl)amino]-3-cyclobutyl-1-phenyl-1H-pyrazolo[3,4-b]pyridine-6-carboxylic acid] | 312.85 | 1110 | 120.85 | 1120
CC1CN(c2cc(C(=O)O)nc3c2c(C2CCC2)nn3-c2ccccc2)C1 [compound 440, 3-cyclobutyl-4-(3-methylazetidin-1-yl)-1-phenyl-1H-pyrazolo[3,4-b]pyridine-6-carboxylic acid] | 308.95 | 1930 | 104.7 | 1920
O=C(O)c1cc(N2CCC(F)(F)C2)c2c(C3CCC3)nn(-c3ccccc3)c2n1 [compound 441, 3-cyclobutyl-4-(3,3-difluoropyrrolidin-1-yl)-1-phenyl-1H-pyrazolo[3,4-b]pyridine-6-carboxylic acid] | 289.75 | 1510 | 111.85 | 2050
O=C(O)c1cc(N2CCC(C(F)(F)F)C2)c2c(C3CCC3)nn(-c3ccccc3)c2n1 (centres unmarked) [compound 442, 3-cyclobutyl-1-phenyl-4-[3-(trifluoromethyl)pyrrolidin-1-yl]-1H-pyrazolo[3,4-b]pyridine-6-carboxylic acid] | 321.95 | 655 | 137.7 | 1080
O=C(O)c1cc(N2CCC(N3CCCC3)CC2)c2c(C3CCC3)nn(-c3ccccc3)c2n1 [compound 443, 3-cyclobutyl-1-phenyl-4-[4-(pyrrolidin-1-yl)piperidin-1-yl]-1H-pyrazolo[3,4-b]pyridine-6-carboxylic acid] | 317.25 | 1470 | 146.9 | 2300
O=C(O)c1cc(N2CCC(F)CC2)c2c(C3CCC3)nn(-c3ccccc3)c2n1 [compound 444, 3-cyclobutyl-4-(4-fluoropiperidin-1-yl)-1-phenyl-1H-pyrazolo[3,4-b]pyridine-6-carboxylic acid] | 282.8 | 543 | 111.15 | 1110
O=C(O)c1cc(N2C[C@H](O)[C@@H](O)C2)c2c(C3CCC3)nn(-c3ccccc3)c2n1 [compound 446, 3-cyclobutyl-4-[(3S,4S)-3,4-dihydroxypyrrolidin-1-yl]-1-phenyl-1H-pyrazolo[3,4-b]pyridine-6-carboxylic acid] | 171.35 | 3340 | 20.695 | > 10000
